Experimental data as given in patent US9050264B2, “Cellulose capsules and methods for making them” (University of Iowa Research Foundation, priority 2009, dated 2015).
Where a name gives a salt, the structure may show the parent alone. Blank lines part the entries; values can stand above or below the compound they belong to.

Key:
Type in all cases: physicochemical
[1] = Release of KCl from cellulose capsules in unstirred aqueous urea solutions (potassium ion selective electrode); conditions: cellulose capsule (shell 0.07-0.10 mm), KCl 500 mg, unstirred 200 mL, 37 C
Protocol: Cellulose capsule shells (shell thickness 0.07-0.10 mm), prepared according to Example 2, were filled with KCl (500 mg) and subjected to the release study in the unstirred dissolution medium (200 mL) containing 0.0, 1.5, 3.0, 5.5, or 8.0 M urea at 37±0.5° C. using a Hansen Research USP II basket apparatus (Hansen Research Corp., Chatsworth, Calif.). The amount of KCl released was analyzed using a potassium ion selective electrode connected to a pH meter (Orion model 420, Fisher Scientific, Inc., Pittsburgh, Pa.).

[2] = Dissolution study of acetaminophen release from cellulose capsules in water (USP II basket, HPLC); conditions: for release rate: acetaminophen 50 mg + lactose 150 mg, water 900 mL, 37 C, 100 r.p.m.
Protocol: Cellulose capsule shells of three different shell thicknesses (0.05, 0.06 and 0.07 mm) were prepared from the methylolcellulose solution (cellulose content 4.4%, w/w) according to Example 2. They were filled with a homogeneously mixed powder blend of acetaminophen (50 mg) and lactose (150 mg). The dissolution study was performed in water (900 mL) at 37±0.5° C. and 100±2 r.p.m. using a Hansen Research USP II basket apparatus (Hansen Research Corp., Chatsworth, Calif.). The amount of drug released was determined by high performance liquid chromatography (HPLC) using an absolute calibration method and a fully automated Shimadzu LC-6A high performance liquid chromatograph, equipped with a C18 analytical column (Supelco—Sigma Aldrich, Bellefonte, Pa.). The drug was eluted with a 1:3 methanol:water mixture at a flow rate of 0.5 mL/min and detected at a wavelength of 243 nm. The release of acetaminophen increased linearly with time (see FIG. 4A).
Cellulose capsule shells (shell thickness 0.07-0.10 mm) prepared according to Example 2 were filled with 50, 100 and 200 mg of acetaminophen. The release studies were carried out in purified water (900 mL) at 37±0.5° C. and 100±2 r.p.m. The amount of acetaminophen released over time was determined by HPLC using conditions described above.
Cellulose capsule shells (shell thickness 0.07-0.10 mm), prepared according to Example 2, were filled with a homogeneously mixed powder blend of acetaminophen (100 mg) and 15, 50, 100, 150, or 200 mg of polyethylene glycol (PEG) 8000 (corresponding to the percent weight ratio of 87:13, 67:33, 50:50, 40:60, or 33:67, respectively, for the total powder fill in the capsule). The release studies were performed in purified water (900 mL) at 37±0.5° C. and 100±2 r.p.m. using the Hansen Research USP II basket apparatus (Hansen Research Corp., Chatsworth, Calif.). The amount of acetaminophen released was determined by HPLC as described above. […] Above 60% w/w PEG 8000 in the formulation, there was no change in the release rate compared to the rate at 50% PEG in the mixture.
Cellulose capsule shells (shell thickness 0.07-0.1 mm) prepared according to Example 2 were filled with acetaminophen (100 mg) and 50, 100 and 200 mg potassium chloride (KCl) (corresponding to the weight ratio of 33:67, 50:50 or 67:33, respectively, for the total powder fill in the capsule). The amounts of acetaminophen released at different times were determined by HPLC, following the procedure described above.

[3] = Dissolution study of cellulose:Eudragit S100 capsule shells in pH 3.0 and pH 7.4 buffers (USP II basket, HPLC); conditions: Cellulose:Eudragit (90:10%, w/w) capsule shell ~0.08 mm, acetaminophen 50 mg + anhydrous lactose 150 mg
Protocol: Cellulose:Eudragit (90:10%, w/w) capsule shells (shell thickness˜0.08 mm) prepared according to Example 2 were filled with a homogeneously mixed powder blend of acetaminophen (50 mg) and anhydrous lactose (150 mg) and subjected to dissolution study first in pH 3.0 phthalate buffer (900 mL) for 3 h at 37±0.5° C. and 100±2 r.p.m followed by in pH 7.4 phosphate buffer (900 mL) for 5 h at 37±0.5° C. and 100±2 r.p.m. using a Hansen Research USP II basket apparatus (Hansen Research Corp., Chatsworth, Calif.). The amount of drug released was determined by HPLC according to the method described above. […] The higher steady-state release rate observed for acetaminophen at pH 7.4 is attributed to the dissolution of Eudragit, causing the capsule shell to become more porous.
Cellulose, cellulose-Eudragit (90:10) and cellulose:Eudragit (90:10%, w/w) capsule shells (shell thickness˜0.08 mm) were prepared according to Example 2. The dissolution test was carried out in pH 7.4 phosphate buffer (900 mL) for 5 h at 37±0.5° C. and 100±2 r.p.m. using a Hansen Research USP II basket apparatus (Hansen Research Corp., Chatsworth, Calif.). The amount of drug released was determined by HPLC according to the method described above. FIG. 12 compares the release results from the three capsule systems. The steady-state release rates calculated were 1.8, 3.1 and 4.6 mg/h, respectively.

[4] = Release of diphenhydramine hydrochloride from cellulose capsules in water (USP II basket, HPLC); conditions: cellulose capsule, water 900 mL
Protocol: Cellulose capsule shells (shell thickness 0.07-1.0 mm), prepared according to Example 2, were filled with diphenhydramine hydrochloride and lactose (400 mg) mixed in different weight-by-weight ratios (50:50, 25:75, 12.5:87.5, 6.25:93.75 or 3.75:96.25 weight ratios of diphenhydramine hydrochloride and lactose, respectively). The release study was performed in water (900 mL) at 37±0.5° C. and 100±2 r.p.m. using a Hansen Research USP II basket apparatus (Hansen Research Corp., Chatsworth, Calif.). The amount of drug released was determined by HPLC using a fully automated Shimadzu LC-10A high performance liquid chromatograph, equipped with a C18 analytical column (Supelco). The drug was eluted with a 1:4 (v/v) mixture of methanol:water (containing 1% triethylamine and 2% glacial acetic acid) at a flow rate of 0.2 mL/min and detected at a wavelength of 256 nm. […] The steady state release rates mentioned above depended linearly with the calculated osmotic pressure developed inside the capsule shell.

Structure (SMILES): [Cl-].[K+] [KCl, potassium chloride]
steady state release rate ([1]; 0.0 M urea): 142.8 mg/h | steady state release rate ([1]; 1.5 M urea): 115.8 mg/h | steady state release rate ([1]; 3.0 M urea): 100.2 mg/h | steady state release rate ([1]; 5.5 M urea): 73.8 mg/h | steady state release rate ([1]; 8.0 M urea): 46.2 mg/h

steady-state release rate ([2]; cellulose capsule (shell 0.07-0.10 mm) filled with 50 mg acetaminophen, purified water): 3.05 mg/h | steady-state release rate ([2]; cellulose capsule (shell 0.07-0.10 mm) filled with 100 mg acetaminophen, purified water): 3.43 mg/h | steady-state release rate ([2]; cellulose capsule (shell 0.07-0.10 mm) filled with 200 mg acetaminophen, purified water): 3.15 mg/h | steady-state release rate ([2]; cellulose capsule (shell 0.07-0.10 mm), 33:67 (% w/w) acetaminophen:PEG 8000 (100 mg + 200 mg), purified water): 7.38 mg/h | steady-state release rate ([2]; cellulose capsule (shell 0.07-0.1 mm), 33:67 acetaminophen:KCl mixture): 9.94 mg/h | steady-state release rate ([2]; cellulose capsule (shell 0.07-0.10 mm), 40:60 (% w/w) acetaminophen:PEG 8000 (100 mg + 150 mg), purified water): 7.17 mg/h | steady-state release rate ([2]; cellulose capsule (shell 0.07-0.10 mm), 50:50 (% w/w) acetaminophen:PEG 8000 (100 mg + 100 mg), purified water): 6.95 mg/h | steady-state release rate ([2]; cellulose capsule (shell 0.07-0.1 mm), 50:50 acetaminophen:KCl mixture): 10.14 mg/h | steady-state release rate ([2]; cellulose capsule (shell 0.07-0.10 mm), 67:33 (% w/w) acetaminophen:PEG 8000 (100 mg + 50 mg), purified water): 6.62 mg/h | steady-state release rate ([2]; cellulose capsule (shell 0.07-0.1 mm), 67:33 acetaminophen:KCl mixture): 11.41 mg/h | steady-state release rate ([2]; cellulose capsule (shell 0.07-0.10 mm), 87:13 (% w/w) acetaminophen:PEG 8000 (100 mg + 15 mg), purified water): 5.92 mg/h | release rate ([2]; cellulose capsule shell thickness 0.05 mm): 5.25 mg/h | release rate ([2]; cellulose capsule shell thickness 0.06 mm): 4.30 mg/h | release rate ([2]; cellulose capsule shell thickness 0.07 mm): 3.06 mg/h | steady-state release rate ([3]; pH 3.0 phthalate buffer, 3 h): 2.68 mg/h | steady-state release rate ([3]; pH 7.4 phosphate buffer, 5 h): 4.76 mg/h
Structure (SMILES): CC(=O)Nc1ccc(O)cc1 [acetaminophen]

steady-state release rate ([4]; 3.75:96.25 diphenhydramine hydrochloride:lactose core powder mixture (400 mg)): 3.92 mg/h | steady-state release rate ([4]; 6.25:93.75 diphenhydramine hydrochloride:lactose core powder mixture (400 mg)): 7.58 mg/h | steady-state release rate ([4]; 12.5:87.5 diphenhydramine hydrochloride:lactose core powder mixture (400 mg)): 12.70 mg/h | steady-state release rate ([4]; 25:75 diphenhydramine hydrochloride:lactose core powder mixture (400 mg)): 34.17 mg/h | steady-state release rate ([4]; 50:50 diphenhydramine hydrochloride:lactose core powder mixture (400 mg)): 67.96 mg/h
Structure (SMILES): CN(C)CCOC(c1ccccc1)c1ccccc1 [diphenhydramine hydrochloride]
